The text below walks through data of PubChem BioAssay (NCI).

SMILES strings stand for the structures.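 Cells were grown in 96-well plates and exposed to each compound for 48 hours at five concentrations; endpoints were interpolated linearly between bracketing concentrations, or set to the highest concentration if not reached. TGI marks complete inhibition of growth.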

Common to all, as to test: growth of human tumour cells (NCI), 48 h
Experiment [1] has as its system LXFL 529 NSCLC.
Experiment [2] has as its system SNB-78 CNS.
For experiment [3], the system named is DLD-1 colon.
Experiment [4] relates to RXF-631 renal.
Experiment [5] deals with DMS 114 small cell lung.
Experiment [6] concerns M19-MEL melanoma.
Experiment [7] deals with DMS 273 small cell lung.
For experiment [8], the system named is HOP-18 NSCLC.
For experiment [9], the system named is XF 498 CNS.

`CCN(CC)CCNc1ccc2nnn3c4ccc(C)cc4c(=O)c1c23`: the TGI amounted to 24.5 µM in experiment [1]; 26.1 µM in [2]; 25.9 µM in experiment [3]; 18.4 µM in [4]; 21.3 µM in [5]; 27.8 µM in experiment [6].

Turning to `Cc1ccc(NCC(=O)N2CC(=O)Nc3ccccc32)c(C)c1`, the TGI in [1], in experiment [2], in [7], in experiment [3], in experiment [8] and in [6] was above 100 µM in each case. The TGI in [9] is above 100 µM.

With `NCCCOc1ccc([N+](=O)[O-])cc1Cl`, the TGI in experiment [1], in experiment [7], in [3], in experiment [5], in [6] and in experiment [9] was above 100 µM each time.

For the molecule `C/C(N=NS(=O)(=O)c1ccccc1)=C1\C=CC=CN1O`, the TGI in experiment [1], in experiment [2], in experiment [7], in [3], in experiment [8] and in [4] was above 100 µM in each case. For the same molecule, the TGI in experiment [5], in experiment [6] and in experiment [9] was above 100 µM each time.

Turning to `BrC1=CCC23CC=C(Br)[C@H]4CC2(COC3)C[C@@H]1O4` (some centres not stated), the TGI is above 100 µM in [1]; 93.6 µM in experiment [2]; above 100 µM in experiment [7]; above 100 µM in experiment [5]; above 100 µM in experiment [6]; above 100 µM in experiment [9].

Take `O=c1cc(-c2ccccc2)c2ccccc2[nH]1`: the TGI was above 100 µM in experiment [1]; above 100 µM in experiment [7]; above 100 µM in [3]; above 100 µM in experiment [8]; 51.4 µM in experiment [5]; above 100 µM in experiment [6].

On to `[N-]=[N+]=NC(CCl)c1cn([C@H]2C[C@H](O)[C@@H](CO)O2)c(=O)[nH]c1=O` (some centres not stated), for which the TGI in experiment [1], in [2], in experiment [7], in experiment [3], in experiment [8] and in experiment [5] was above 100 µM throughout. In experiment [6], this molecule displayed a TGI above 100 µM.
